Measurements reported in US6914077B2, “Mite repellant and/or miticide composition” (Kao Corporation, priority 2001, dated 2005).
Where two headings read alike, the source gives them in different places.

Legend:
Assay type in all cases: in vivo
[1] = test system: Dermatophagoides farinae Hughes; assay: Mite repellent effect test (impregnated black paper); details: mites counted after 15 minutes, vs acetone control
Experimental: The repellent effects of compounds shown in Table 1 were evaluated in accordance with the following method. 1. Mite (or mites) under test: Dermatophagoides farinae Hughes. 2. Testing method: Each test compound was diluted with acetone, black paper 2.5 cm square was impregnated with the diluted test compound in such a manner that the test compound is impregnated in a proportion of 100 μg or 1,000 μg per cm^2 and the black paper was air-dried under room temperature for 2 hours. Black paper treated with acetone alone was also provided as a control group. Mites grown at high density were transferred together with a medium to a glass batt (15×20 cm), and a sheet of gauze cut out in the same size was placed thereon. This medium was placed in a plastic closed container controlled at relative humidity of at least 85% with saturated brine and incubated at 25° C. Three sheets of the black paper treated with the test compound were arranged side by side at intervals of at least 5 mm on the gauze to count the number of the mites climbed up the front and back surfaces of the black paper after 15 minutes. This process was repeated 3 times to find an average value, and it was compared with the control group to calculate out a repelling rate in accordance with the following equation. Repelling rate={(A−B)/A}×100(%) wherein A is the number of mites climbed up in the control group, and B is the number of mites climbed up in the treated group.

[2] = test system: Dermatophagoides farinae Hughes; assay: Miticidal effect test (impregnated folded filter paper); details: 1,000 μg per cm^2 on filter paper, 25° C.
Experimental: The miticidal effects of compounds shown in Table 2 were evaluated in accordance with the following method. • 1. Mite or Mites under test: Dermatophagoides farinae Hughes. • 2. Testing method:
Each test compound was diluted with acetone, filter paper 5×10 cm in size was impregnated with the diluted test compound in such a manner that the test compound is impregnated in a proportion of 1,000 μg per cm^2, and the filter paper was air-dried at room temperature for 2 hours. Filter paper treated with acetone alone was also provided as a control group. Each filter paper was folded in two, and 20 to 40 mites were freed therein to close the open portion with aclip in such a manner that the mites cannot escape. After the filter paper was incubated for 24 hours or 48 hours in an environment of 25° C. and relative humidity of at least 80%, the numbers of the living or dead mites are calculated through a stereoscopic microscope. This process was repeated 3 times to find an average lethality, and it was compared with the untreated group to calculate out a compensated lethality in accordance with the following equation. Compensated lethality={(Y−X)/(100−X)}×100 (%) wherein X is an average lethality in the control group, and Y is an average lethality in the treated group.

[3] = test system: Dermatophagoides farinae Hughes; assay: Mite growth inhibition test in treated medium; details: for inhibition at 0.045 % strength: 0.045 % by weight in medium; for inhibition at 0.12 % strength: 0.12 % by weight in medium; for inhibition at 0.23 % strength: 0.23 % by weight in medium; for inhibition at 0.34 % strength: 0.34 % by weight in medium
Experimental: The inhibitory effect of methyl dihydrojasmonate on the growth of mites was evaluated in accordance with the following method. • 1. Mite (or Mites) under test: Dermatophagoides farinae Hughes. • 2. Testing method:
After a predetermined amount of methyl dihydrojasmonate diluted with ethanol was added to mite-free sterilized medium (10 g; MF powder feed; Oriental Yeast Co., Ltd.), and both were mixed, the mixture was air-dried at room temperature for at least 3 hours to provide a treated group. A medium mixed with ethanol was provided as a control group. Mites sufficiently grown with the same medium as described above in advance were fully mixed with the medium, and this mixture (1 g) was mixed into the test medium containing methyl dihydrojasmonate and control medium, respectively. After fully stirred, the mites were raised at 25° C. for 22 days. A sample (0.1 g) was taken out of each medium to count the number of active mites through a microscope, thereby calculating out a mite growth-inhibiting rate. Incidentally, the test was repeated 3 times to conduct the evaluation in terms of the average value thereof. Mite growth-inhibiting rate={(T−S)/T}×100 (%) wherein T is the number of viable mites in the control group, and S in the number of viable mites in the treated group.

[4] = concentration of compound 100 μg/cm^2 on black paper
[5] = concentration of compound 1,000 μg/cm^2 on black paper
[6] = 8th day, read-out: Growth-inhibiting rate on the 8th day
[7] = 22nd day, read-out: Growth-inhibiting rate on the 22nd day

| Structure (SMILES) | Repelling rate [1, 4] [%] | Repelling rate [1, 5] [%] | other results |
| --- | --- | --- | --- |
| C=C(C)C1CC=C(C)C(=O)C1 (stereo not drawn) [Carvone, reference compound] | 10 | 29 | – |
| CCCCCC1=C(C)CCC1=O [Dihydrojasmone] | 80 | 83 | – |
| CC(C)=CCCC(C)=CCCC(C)=CCO [Farnesol] | 94 | 96 | Compensated lethality ([2]; incubation time 24 hr): 63%; Compensated lethality ([2]; incubation time 48 hr): 77% |
| C=CC(C)(O)CCC=C(C)C (stereo not drawn) [Linalool, reference compound] | 47 | 57 | – |
| CCCCCC1C(=O)CCC1CC(=O)OC (stereo not drawn) [Methyl dihydrojasmonate] | 90 | 94 | inhibition at 0.045 % strength [3, 6]: 75%; inhibition at 0.045 % strength [3, 7]: 54%; inhibition at 0.12 % strength [3, 6]: 86%; inhibition at 0.12 % strength [3, 7]: 61%; inhibition at 0.23 % strength [3, 6]: 93%; inhibition at 0.23 % strength [3, 7]: 69%; inhibition at 0.34 % strength [3, 6]: 92%; inhibition at 0.34 % strength [3, 7]: 80%; Compensated lethality ([2]; incubation time 24 hr): 100%; Compensated lethality ([2]; incubation time 48 hr): 100% |
| CC/C=C\CC1C(=O)CCC1CC(=O)OC (stereo not drawn) [Methyl jasmonate] | 93 | 97 | – |
| C=CC(C)(O)CCC=C(C)CCC=C(C)C (stereo not drawn) [Nerolidol] | 80 | 79 | – |
| C/C(=C\CO)CCC[C@H](C)CCC[C@H](C)CCCC(C)C [Phytol] | 52 | 72 | – |
| CC/C=C\CC1=C(C)CCC1=O [cis-Jasmone] | 72 | 85 | – |
